Experimental data taken from patent publication US20240376143A1, “SELECTION INHIBITION OF DNA POLYMERASE BETA BY A COVALENT INHIBITOR” (The Johns Hopkins University, priority 2021, published 2024).
Blank lines part the entries; values can stand above or below the compound they belong to.

Tests used:
[1] = target: DNA polymerase β (Pol β) (Homo sapiens, UniProt P06746); conditions: 30 min preincubation; Paul et al.; cited from earlier work
[2] = target: T1, Pol η (Homo sapiens, UniProt Q9Y253); assay: primer extension assay (Pol η); format: biochemical; conditions: 10 μM
T1 construct: purchased EnzyMax
T1 sequence (Q9Y253 1-713): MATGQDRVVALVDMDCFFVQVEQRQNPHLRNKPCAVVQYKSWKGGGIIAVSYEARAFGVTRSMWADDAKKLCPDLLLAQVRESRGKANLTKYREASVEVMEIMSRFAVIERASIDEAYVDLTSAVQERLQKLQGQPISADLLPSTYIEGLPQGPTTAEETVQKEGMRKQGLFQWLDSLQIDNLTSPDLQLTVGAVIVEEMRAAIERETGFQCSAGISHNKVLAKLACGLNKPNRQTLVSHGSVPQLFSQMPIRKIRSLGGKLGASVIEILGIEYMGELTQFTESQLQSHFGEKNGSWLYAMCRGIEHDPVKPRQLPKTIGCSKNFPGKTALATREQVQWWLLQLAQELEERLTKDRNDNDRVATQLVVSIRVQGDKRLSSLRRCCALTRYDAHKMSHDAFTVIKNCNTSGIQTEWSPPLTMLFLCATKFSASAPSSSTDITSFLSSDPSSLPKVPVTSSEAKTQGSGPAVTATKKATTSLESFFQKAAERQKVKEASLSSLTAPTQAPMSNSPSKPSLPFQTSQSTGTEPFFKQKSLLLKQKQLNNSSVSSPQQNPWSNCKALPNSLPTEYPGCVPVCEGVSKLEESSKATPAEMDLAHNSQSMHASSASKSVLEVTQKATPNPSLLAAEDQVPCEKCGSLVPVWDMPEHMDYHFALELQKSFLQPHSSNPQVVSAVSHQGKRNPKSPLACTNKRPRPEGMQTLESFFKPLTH
Procedure: (§1) A 10× working solution of 14 (5 or 100 μM) was prepared in 1:1 MeCN/H2O. A 10× preincubation mixture was prepared by mixing a 50× working solution of polymerase (250 nM) with an aliquot of the inhibitor (5 or 100 μM, 10×) in 1× reaction buffer (50 mM Tris·HCl, 50 mM NaCl, 5 mM MgCl2, 5 mM DTT, 0.1 mg/mL BSA, 10% glycerol, pH 7.5) (see Table 19 for volumes). The concentration of the preincubation mixture was 50 nM polymerase (10×) and 0, 0.5 or 10 μM 14 (1×).
(§2) The samples containing 50 nM polymerase and 14 (0, 0.5, or 10 μM) were preincubated at 25° C. for 20 min. After preincubation, an aliquot (2 μL, pol η or 3 μL, pol λ) was diluted with 10× ternary complex (pol η: 2 μL, 500 nM D4 or pol λ: 3 μL, 100 nM TC5), 10× dNTPs (5 mM; 2 μL, pol η or 3 μL, pol λ), and 1× reaction buffer (14 μL., pol η or 21 μL, pol λ) (see Table 20 for volumes). While the samples were incubated at 37° C., aliquots (pol η: 0, 2, 5, 10, 15, 20 min, 3 μL or pol λ: 0, 5, 15, 20, 30 min, 5 μL) were removed and quenched by the addition of 95% formamide, 20 mM EDTA loading buffer (10 μL). Aliquots were heated at 95° C. for 5 min, spun down, and loaded onto a 20% denaturing PAGE and run for 4 h at 55 watts. The gel was exposed in a radiography cassette, which was scanned using a Phosphorimager.

[3] = target: T2, Pol λ (Homo sapiens, UniProt Q9UGP5); assay: primer extension assay (Pol λ); format: biochemical; conditions: 10 μM
T2 sequence (Q9UGP5 1-575): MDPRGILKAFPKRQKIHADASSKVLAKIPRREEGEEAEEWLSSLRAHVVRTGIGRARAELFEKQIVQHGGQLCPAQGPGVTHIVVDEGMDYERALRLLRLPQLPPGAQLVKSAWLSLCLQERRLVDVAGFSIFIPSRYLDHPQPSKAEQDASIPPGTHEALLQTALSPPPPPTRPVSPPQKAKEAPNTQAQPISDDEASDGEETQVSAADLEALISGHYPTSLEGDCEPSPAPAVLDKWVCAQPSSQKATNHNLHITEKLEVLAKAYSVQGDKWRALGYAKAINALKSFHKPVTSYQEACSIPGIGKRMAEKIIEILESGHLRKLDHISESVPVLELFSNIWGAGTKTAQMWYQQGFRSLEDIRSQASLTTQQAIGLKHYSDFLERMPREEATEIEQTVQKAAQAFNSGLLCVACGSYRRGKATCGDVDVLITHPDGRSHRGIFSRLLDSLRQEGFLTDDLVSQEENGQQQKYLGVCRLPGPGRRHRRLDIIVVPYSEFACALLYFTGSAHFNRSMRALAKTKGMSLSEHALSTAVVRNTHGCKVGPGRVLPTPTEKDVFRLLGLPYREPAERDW
Procedure: as §1, §2

[4] = system: MEFs lacking Pol β (Pol β−/−); assay: cell viability assay for MEFs lacking Pol β; format: cell-based, mouse; conditions: MMS alone
[5] = system: UWB1.289 (BRCA1−/−); assay: clonogenic assay, BRCA1 deficient ovarian cancer cells; format: cell-based; conditions: 1 μM
Procedure: (§3) The medium was removed, and the cells were resuspended in fresh media (10 mL). […] The excess dye was removed by washing with water twice.
UWB1.289 cells (6×106) were seeded with RPMI 1640/MEGM medium (10 mL) into a 100 mm plate prior to transfection so cells would be adherent and ˜80% confluent on the first day of transfection, which was determined by manual inspection. Transfection was completed as follows: • 1. Lipofectamine RNAiMAX (60 μL) was diluted in Opti-MEM reduced serum medium to 1 mL. • 2. In a separate tube, siRNA (either siNT or siPol β, 10 μM, 60 μL, […]) was diluted in Opti-MEM (500 μL). • 3. The Lipofectamine solution was split (2×500 μL aliquots) and mixed with either siNT or siPol β solution to form the lipid-RNA complex at 25° C. for 5 min. • 4. The RPMI 1640/MEGM medium was removed and replaced with Opti-MEM medium (9 mL). After 5 min incubation, the lipid-RNA solution (1 mL) was added to the cells. Cells were incubated at 37° C. in a 5% CO2 humidified incubator. The following day, steps 1-3 were repeated. and the resulting 2×500 μL solutions were added to the existing cells that had been incubating at 37° C., 5% CO2 for 24 h. Transfected cells were allowed to incubate for an additional 48 h at 37° C., 5% CO2 after the second addition of siRNA. […]

[6] = system: UWB1.289+BRCA1; assay: clonogenic assay, BRCA1 complemented ovarian cancer cells; format: cell-based
[7] = system: MCF-7; assay: clonogenic assay, BRCA1 proficient breast cancer cells; format: cell-based; conditions: 1 h
Procedure: as §3

[8] = system: MDA-MB-436; assay: clonogenic assay, BRCA1 deficient breast cancer cells; format: cell-based; conditions: 1 h
Procedure: as §3

Compound: COc1cc(Cl)c(C=NOC2CC(n3cc(CNC(=O)c4cc5cccc(O)c5cc4O)c(=O)[nH]c3=O)OC2COP(=O)(O)OCC2CC(O)OC2O)c(Cl)c1O (stereo not drawn) [Compound 2]
- IC50 [1]: 400 nM

- Pol η activity retained [2]: approximately 50%
- Pol λ activity relative to untreated enzyme [3]: more than 25%
Compound: O=C(NC1CC(n2cc(CNC(=O)c3cc4cc(Br)ccc4c(Br)c3O)c(=O)[nH]c2=O)OC1COP(=O)(O)OCC1CC(O)OC1O)c1cc(-c2ccc(Cl)cc2)oc1C(F)(F)F (stereo not drawn) [Compound 14]

Compound: COS(C)(=O)=O [MMS, methyl methanesulfonate]
- toxicity compared with WT MEFs [4]: considerably more toxic

Compound: O=C(c1cc(Cc2n[nH]c(=O)c3ccccc23)ccc1F)N1CCN(C(=O)C2CC2)CC1 [Olaparib]
- cytotoxicity as a function of treatment time [5]: proportional to incubation time
- toxicity ([6]; 1 h treatment): modestly toxic
- cytotoxicity upon prolonged treatment, compared with pro-1 ([6]; time course): more cytotoxic
- toxicity compared with pro-1 [7]: more toxic
- cell killing compared with pro-1 [8]: more effective at killing BRCA1−/− cells at a lower concentration
